Source: ChEMBL document CHEMBL1142710, “3D-QSAR comparative molecular field analysis on opioid receptor antagonists: pooling data from different studies” (J Med Chem, 2005)

Legend:
Mu-type opioid receptor = Mu-type opioid receptor (Rattus norvegicus, UniProt P33535); assay: Binding affinity against Opioid receptor mu 1 from rat brain membranes using [3H]DAMGO
[1] = biological target: Delta-type opioid receptor (Rattus norvegicus, UniProt P33533); assay: Binding affinity against Opioid receptor delta 1 from rat brain membranes using [3H]DADLE
Chain of Delta-type opioid receptor (P33533 whole entry): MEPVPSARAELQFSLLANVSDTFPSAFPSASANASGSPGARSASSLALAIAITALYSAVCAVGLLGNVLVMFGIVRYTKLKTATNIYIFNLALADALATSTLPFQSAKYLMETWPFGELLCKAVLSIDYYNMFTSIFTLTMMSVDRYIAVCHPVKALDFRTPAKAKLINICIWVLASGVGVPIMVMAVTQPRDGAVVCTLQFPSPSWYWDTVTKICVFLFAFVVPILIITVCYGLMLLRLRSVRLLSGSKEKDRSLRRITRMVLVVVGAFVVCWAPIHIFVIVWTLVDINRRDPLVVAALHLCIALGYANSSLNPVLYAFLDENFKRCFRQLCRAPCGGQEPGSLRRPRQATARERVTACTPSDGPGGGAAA

[2] = biological target: Kappa-type opioid receptor (Cavia porcellus, UniProt P41144); assay: Binding affinity against Opioid receptor kappa 1 from guinea pig brain membranes using [3H]U-69593
Chain of Kappa-type opioid receptor (P41144 whole entry): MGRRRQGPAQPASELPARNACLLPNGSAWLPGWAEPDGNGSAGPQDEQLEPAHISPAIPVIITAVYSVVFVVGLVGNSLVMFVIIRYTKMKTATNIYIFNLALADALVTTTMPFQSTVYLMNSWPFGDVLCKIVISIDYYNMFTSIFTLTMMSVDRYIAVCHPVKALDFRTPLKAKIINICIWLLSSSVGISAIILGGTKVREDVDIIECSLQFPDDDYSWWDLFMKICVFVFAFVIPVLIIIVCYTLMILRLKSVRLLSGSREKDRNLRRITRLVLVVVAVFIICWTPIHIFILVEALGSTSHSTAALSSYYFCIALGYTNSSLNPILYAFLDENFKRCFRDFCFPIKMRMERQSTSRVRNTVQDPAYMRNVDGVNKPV

Chain of Mu-type opioid receptor (P33535 whole entry): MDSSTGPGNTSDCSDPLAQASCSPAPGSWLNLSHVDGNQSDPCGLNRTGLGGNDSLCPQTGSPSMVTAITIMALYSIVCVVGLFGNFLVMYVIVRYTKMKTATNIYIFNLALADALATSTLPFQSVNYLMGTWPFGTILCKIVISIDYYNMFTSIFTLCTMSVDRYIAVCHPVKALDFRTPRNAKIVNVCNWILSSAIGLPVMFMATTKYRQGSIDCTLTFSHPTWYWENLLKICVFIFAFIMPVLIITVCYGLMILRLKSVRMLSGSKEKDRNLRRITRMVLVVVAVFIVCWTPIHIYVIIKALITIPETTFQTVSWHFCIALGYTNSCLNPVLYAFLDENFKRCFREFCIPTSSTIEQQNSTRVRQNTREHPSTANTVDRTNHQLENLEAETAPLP

SMILES | Ki (Mu-type opioid receptor) | Ki [1] | Ki [2]
COc1ccc2c(c1O)[C@]13CCN(CC4CC4)C(C2)[C@@H]1CC1c2ccccc2NC1C3 (stereo partly drawn) | 13200 nM | 7.08 nM | 7940 nM
COc1ccc2c(c1O)[C@]13CCN(C)C(C2)[C@@H]1CC1c2ccccc2NC1C3 (stereo partly drawn) | 2820 nM | 93.3 nM | –
Oc1ccc2c3c1O[C@H]1c4ncc(-c5ccccc5)cc4C[C@@]4(O)C(C2)N(CC2CC2)CCC314 (stereo partly drawn) | 13.5 nM | 0.871 nM | 17.8 nM
CCN1CC[C@]23CC4Nc5ccccc5C4C[C@@]2(O)C1Cc1ccc(OC)c(O)c13 (stereo partly drawn) | 794 nM | 692 nM | –
Oc1ccc2c3c1O[C@H]1c4nccc(-c5ccccc5)c4C[C@@]4(O)C(C2)N(CC2CC2)CCC314 (stereo partly drawn) | 191 nM | 72.4 nM | 263 nM
C=C(C)CN1CCC23c4c5ccc(OC)c4O[C@H]2C(=O)/C(=C\c2ccccc2)C[C@@]3(O)C1C5 (stereo partly drawn) | – | 3390 nM | –
Oc1ccc2c3c1O[C@H]1c4ncc(-c5ccc(Cl)cc5)cc4C[C@@]4(O)C(C2)N(CC2CC2)CCC314 (stereo partly drawn) | 51.3 nM | 2.19 nM | 20 nM
Oc1ccc2c3c1O[C@H]1c4ncncc4C[C@@]4(O)C(C2)N(CC2CC2)CCC314 (stereo partly drawn) | 4.17 nM | 3.47 nM | 6.31 nM
Oc1ccc2c3c1O[C@H]1c4ncccc4C[C@@]4(O)C(C2)N(CC2CC2)CCC314 (stereo partly drawn) | 1.51 nM | 0.776 nM | 8.71 nM
C=C(C)CN1CCC23c4c5ccc(O)c4O[C@H]2c2ncc(-c4ccc(Cl)cc4)cc2C[C@@]3(O)C1C5 (stereo partly drawn) | – | 15.8 nM | 302 nM
C=C(C)CN1CCC23c4c5ccc(OC)c4O[C@H]2c2ncc(-c4ccc(Cl)cc4)cc2C[C@@]3(O)C1C5 (stereo partly drawn) | – | 257 nM | 3240 nM
CCN1CC[C@]23CC4Nc5ccccc5C4C[C@H]2C1Cc1ccc(OC)c(O)c13 (stereo partly drawn) | 1350 nM | 513 nM | 3630 nM
Cc1ncc2c(n1)[C@@H]1Oc3c(O)ccc4c3C13CCN(CC1CC1)C(C4)[C@]3(O)C2 (stereo partly drawn) | 6.03 nM | 22.9 nM | 25.1 nM
COc1ccc2c(c1O)[C@]13CCN(C)C(C2)[C@]1(O)CC1c2ccccc2NC1C3 (stereo partly drawn) | 2820 nM | 219 nM | –
Cc1cc(-c2ccccc2)c2c(n1)[C@@H]1Oc3c(O)ccc4c3C13CCN(CC1CC1)C(C4)[C@]3(O)C2 (stereo partly drawn) | 155 nM | 126 nM | 676 nM
Oc1ccc2c3c1O[C@H]1c4nc(-c5ccccc5)ccc4C[C@@]4(O)C(C2)N(CC2CC2)CCC314 (stereo partly drawn) | 11 nM | 1.78 nM | 18.2 nM
COc1ccc2c(c1O)[C@]13CCN(CC4CC4)C(C2)[C@]1(O)CC1c2ccccc2NC1C3 (stereo partly drawn) | 1860 nM | 21.9 nM | 3160 nM
CCCCC1c2c([nH]c3ccccc23)[C@H]2Oc3c(OC)ccc4c3[C@@]23CCN(C)[C@H](C4)[C@H]13 (stereo partly drawn) | – | 372 nM | –
CC(C)=CCN1CC[C@]23c4c5ccc(O)c4O[C@@H]2c2[nH]c4ccccc4c2C[C@@]3(O)[C@H]1C5 | 2820 nM | 25.1 nM | 3240 nM
CC(C)CCN1CC[C@]23c4c5ccc(O)c4O[C@@H]2c2[nH]c4ccccc4c2C[C@@]3(O)[C@H]1C5 | 1290 nM | 3.8 nM | 676 nM

SMILES | Ki (Mu-type opioid receptor) | Ki [1] | Ki [2]
CCCCCCCN1CC[C@]23c4c5ccc(O)c4O[C@@H]2c2[nH]c4ccccc4c2C[C@@]3(O)[C@H]1C5 | 4570 nM | 79.4 nM | –
CCCCN1CC[C@]23c4c5ccc(O)c4O[C@@H]2c2[nH]c4ccccc4c2C[C@@]3(O)[C@H]1C5 | 1290 nM | 8.32 nM | 891 nM
CCCCC1c2c([nH]c3ccccc23)[C@H]2Oc3c(O)ccc4c3[C@@]23CCN(C)[C@H](C4)[C@H]13 (stereo partly drawn) | 1100 nM | 21.9 nM | 724 nM
CC(C)CN1CC[C@]23c4c5ccc(O)c4O[C@@H]2c2[nH]c4ccccc4c2C[C@@]3(O)[C@H]1C5 | 2570 nM | 3.8 nM | 646 nM
CCCCCCN1CC[C@]23c4c5ccc(O)c4O[C@@H]2c2[nH]c4ccccc4c2C[C@@]3(O)[C@H]1C5 | 4570 nM | 25.7 nM | 3090 nM
CCCN1CC[C@]23c4c5ccc(O)c4O[C@@H]2c2[nH]c4ccccc4c2C[C@@]3(O)[C@H]1C5 | 708 nM | 2 nM | 380 nM
CN1CC[C@]23c4c5ccc(O)c4O[C@@H]2c2[nH]c4ccccc4c2C[C@H]3[C@H]1C5 | 708 nM | 2.4 nM | –
CC1c2c([nH]c3ccccc23)[C@H]2Oc3c(O)ccc4c3[C@@]23CCN(C)[C@H](C4)[C@H]13 (stereo partly drawn) | 240 nM | 0.708 nM | 126 nM
C=C(C)CN1CC[C@]23c4c5ccc(OC)c4O[C@@H]2c2[nH]c4ccccc4c2C[C@@]3(O)[C@H]1C5 | – | 501 nM | –
COc1ccc2c3c1O[C@@H]1c4[nH]c5ccccc5c4C[C@H]4[C@@H](C2)N(C)CC[C@]314 | – | 95.5 nM | –
C/C=C/CN1CC[C@]23c4c5ccc(O)c4O[C@@H]2c2[nH]c4ccccc4c2C[C@@]3(O)[C@H]1C5 | 1200 nM | 7.41 nM | 955 nM
COc1ccc2c3c1O[C@@H]1c4[nH]c5ccccc5c4C(C)[C@H]4[C@@H](C2)N(C)CC[C@]314 (stereo partly drawn) | – | 26.9 nM | –
C=C(C)CN1CC[C@]23c4c5ccc(O)c4O[C@@H]2c2[nH]c4ccccc4c2C(C)[C@H]3[C@H]1C5 (stereo partly drawn) | 1070 nM | 8.91 nM | 851 nM
C/C=C/CN1CC[C@]23c4c5ccc(O)c4O[C@@H]2c2[nH]c4ccccc4c2C(C)[C@H]3[C@H]1C5 (stereo partly drawn) | 1020 nM | 2.29 nM | 120 nM
CCCCCN1CC[C@]23c4c5ccc(O)c4O[C@@H]2c2[nH]c4ccccc4c2C[C@@]3(O)[C@H]1C5 | 2820 nM | 15.8 nM | 2000 nM
CC(C)N1CC[C@]23c4c5ccc(O)c4O[C@@H]2c2[nH]c4ccccc4c2C[C@@]3(O)[C@H]1C5 | – | 33.1 nM | 6170 nM
CCO[C@@]12Cc3c([nH]c4ccccc34)[C@]3(C)Oc4c(O)ccc5c4[C@@]31CCN(C)[C@@H]2C5 | – | – | 288 nM
O=C(Oc1ccc2c3c([nH]c2c1)[C@H]1Oc2c(O)ccc4c2[C@@]12CCN(CC1CC1)[C@H](C4)[C@]2(O)C3)c1ccccc1 | 676 nM | 6.76 nM | 468 nM
Oc1ccc2c3c1O[C@@H]1c4[nH]c5cccc(Oc6ccccc6)c5c4C[C@@]4(O)[C@@H](C2)N(CC2CC2)CC[C@]314 | 1450 nM | 67.6 nM | 1320 nM
Oc1ccc2c3c1O[C@@H]1c4[nH]c5cccc(-c6ccccc6)c5c4C[C@@]4(O)[C@@H](C2)N(CC2CC2)CC[C@]314 | 1510 nM | 52.5 nM | 2950 nM

SMILES | Ki (Mu-type opioid receptor) | Ki [1] | Ki [2]
Oc1cccc(-c2ccc3c4c2O[C@@H]2c5[nH]c6ccccc6c5C[C@@]5(O)[C@@H](C3)N(CC3CC3)CC[C@]425)c1 | – | 1620 nM | –
O=C(Oc1cccc2c3c([nH]c12)[C@H]1Oc2c(O)ccc4c2[C@@]12CCN(CC1CC1)[C@H](C4)[C@]2(O)C3)c1ccccc1 | 158 nM | 3.09 nM | 257 nM
O[C@@]12Cc3c([nH]c4ccccc34)[C@H]3Oc4c(-c5ccccc5)ccc5c4[C@@]31CCN(CC1CC1)[C@@H]2C5 | – | 10500 nM | –
Oc1ccc2c3c1O[C@@H]1c4[nH]c5ccc(-c6ccccc6)cc5c4C[C@@]4(O)[C@@H](C2)N(CC2CC2)CC[C@]314 | 166 nM | 15.8 nM | 355 nM
Cc1ccc2c3c1O[C@@H]1c4[nH]c5ccccc5c4C[C@@]4(O)[C@@H](C2)N(CC2CC2)CC[C@]314 | – | 70.8 nM | –
Oc1ccc2c3c1O[C@@H]1c4[nH]c5ccc(/C=C/c6ccccn6)cc5c4C[C@@]4(O)[C@@H](C2)N(CC2CC2)CC[C@]314 | 75.9 nM | 3.72 nM | 20 nM
C=Cc1ccc2c3c1O[C@@H]1c4[nH]c5ccccc5c4C[C@@]4(O)[C@@H](C2)N(CC2CC2)CC[C@]314 | – | 61.7 nM | 17800 nM
O[C@@]12Cc3c([nH]c4ccccc34)[C@H]3Oc4c(-c5ccco5)ccc5c4[C@@]31CCN(CC1CC1)[C@@H]2C5 | – | 955 nM | –
Oc1ccc2c3c1O[C@@H]1c4[nH]c5c(-c6ccccc6)cccc5c4C[C@@]4(O)[C@@H](C2)N(CC2CC2)CC[C@]314 | 123 nM | 2.09 nM | 309 nM
O=C(Oc1ccc2[nH]c3c(c2c1)C[C@@]1(O)[C@H]2Cc4ccc(O)c5c4[C@@]1(CCN2CC1CC1)[C@@H]3O5)c1ccccc1 | 81.3 nM | 4.37 nM | 81.3 nM
Oc1ccc2c3c1O[C@@H]1c4[nH]c5cc(-c6ccccc6)ccc5c4C[C@@]4(O)[C@@H](C2)N(CC2CC2)CC[C@]314 | 1290 nM | 18.2 nM | 631 nM
CC1c2c([nH]c3ccccc23)[C@H]2Oc3c(O)ccc4c3[C@@]23CCN(CC2CC2)[C@H](C4)[C@H]13 (stereo partly drawn) | 66.1 nM | 2.29 nM | 36.3 nM
Oc1ccc2c3c1O[C@@H]1c4[nH]c5cc(Oc6ccccc6)ccc5c4C[C@@]4(O)[C@@H](C2)N(CC2CC2)CC[C@]314 | 234 nM | 6.46 nM | 234 nM
O=C(Oc1cccc2[nH]c3c(c12)C[C@@]1(O)[C@H]2Cc4ccc(O)c5c4[C@@]1(CCN2CC1CC1)[C@@H]3O5)c1ccccc1 | 363 nM | 14.8 nM | 537 nM
Oc1ccc2c3c1O[C@@H]1c4[nH]c5c(Oc6ccccc6)cccc5c4C[C@@]4(O)[C@@H](C2)N(CC2CC2)CC[C@]314 | 33.9 nM | 0.708 nM | 33.9 nM
Oc1ccc2c3c1O[C@@H]1c4[nH]c5ccc(Oc6ccccc6)cc5c4C[C@@]4(O)[C@@H](C2)N(CC2CC2)CC[C@]314 | 295 nM | 17.8 nM | 75.9 nM
C=C(C)CN1CCC23c4c5ccc(OC)c4O[C@H]2c2oc4ccccc4c2C[C@@]3(O)C1C5 (stereo partly drawn) | – | 43.7 nM | –
C=C(C)CN1CCC23c4c5ccc(OC)c4O[C@H]2c2[nH]ncc2C[C@@]3(O)C1C5 (stereo partly drawn) | – | 2400 nM | 3090 nM
Oc1ccc2c3c1O[C@H]1c4[nH]c5ccccc5c4C[C@@]4(O)[C@@H](C2)N(CC2CC2)CC[C@]314 [NALTRINDOLE] | – | – | 26.9 nM
